This passage reports TGI and GI50 results from PubChem BioAssay (NCI).

Several values for one entry are separate records, joined by “and”; a condition that tells them apart may be missing. Equal values may be shown once.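 Cultured in 96-well plates, cells were exposed to test compound for 48 hours across five concentrations. At the GI50, growth is halved. The concentration for full growth arrest is given as TGI.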 A value given as a limit tells only on which side of the number the result lay.

Test in all cases: growth of human tumour cells (NCI), 48 h
Experiment [1] concerns LOX IMVI melanoma.
The subject of experiment [2] is M14 melanoma.
Experiment [3] relates to NCI-H226 lung.
The subject of experiment [4] is NCI-H460 lung.
For experiment [5], the system named is OVCAR-5 ovarian.
For experiment [6], the system named is SK-MEL-2 melanoma.
Experiment [7] has as its system SN12C renal.
Experiment [8] relates to SW-620 colon.
The subject of experiment [9] is U251 CNS.
The subject of experiment [10] is UACC-257 melanoma.

As for `O=CN/C=C/c1ccccc1`, the TGI in experiment [1], in experiment [2], in experiment [3], in experiment [4], in [5] and in experiment [6] was more than 100 µM throughout. In addition, the TGI in experiment [7] was more than 100 µM; in experiment [8], more than 85.6 µM; in [9] it was more than 100 µM; in [10], more than 100 µM.
Consider `O=S1Nc2cccc(C(F)(F)F)c2S1` (stereo not given), for which the TGI is 74.1 µM in [1]; more than 100 µM in experiment [2]; more than 100 µM in experiment [3]; more than 100 µM in experiment [4]; more than 100 µM in [5]; 88.6 µM in experiment [6]. Further, the TGI was more than 100 µM in experiment [7], 23.8 µM in [8], more than 100 µM in experiment [9] and more than 100 µM in experiment [10].
With `CCOC(=O)c1c(NN2CCN(CC(F)(F)F)CC2)oc(/C=C2\C=Nc3ncccc32)c1O`, the GI50 in experiment [1] is 2.28 µM; in experiment [2], 4.77 µM; in experiment [3], 1.73 µM; in experiment [4] it was 3.49 µM; in experiment [5], 19.3 µM; in [6], 2.25 µM. For the same molecule, the GI50 was 4.26 µM in [7], 0.808 µM in experiment [8], 4.01 µM in [9] and 6.45 µM in [10]. The TGI in experiment [1] turned out to be 11.8 µM; in [2] it was 24.4 µM; in experiment [3], 27 µM; in experiment [4] it was 20.2 µM; in [5], 67.5 µM; in [6] it was 4.8 µM. Moreover, the TGI worked out at 42.6 µM in [7], 22.9 µM in [8], 28 µM in experiment [9] and 25.1 µM in experiment [10].
Regarding `COc1ccc(-c2cnc(-c3ccc(OC)cc3)n2-c2cc(OC)c(OC)c(OC)c2)cc1`, the GI50 in [1] was 34.5 µM; in [2] it was 44.7 µM; in [3], 36.7 µM; in [4], 30.7 µM; in [5] it was 45.9 µM; in experiment [6], 32.3 µM. Moreover, the GI50 in [7] is 20.8 µM; in experiment [8], more than 100 µM; in experiment [9] it was 24.4 µM; in experiment [10], 22.9 µM. Besides, the TGI in [1], in experiment [2], in [3], in experiment [4], in [5] and in experiment [6] was more than 100 µM each time. Besides, the TGI was 56.7 µM in [7], more than 100 µM in experiment [8], 69.2 µM in [9] and 85.9 µM in experiment [10].
For `CCNCC(=O)Nc1ccc2c(c1)C(=O)c1ccc(NC(=O)CNCC)cc1C2=O`, the TGI in [1] came out at 6.58 µM; in experiment [2] it was 12.5 µM; in experiment [3], 20 µM; in experiment [5], 10.7 µM; in experiment [6] it was 47.4 µM; in experiment [7] it was 6.45 µM. The TGI in experiment [8] worked out at 12.8 µM; in experiment [9], 5.3 µM; in [10] it was 18.6 µM.
On to `Cc1nc2ccccc2c(=O)n1/N=C(\N=Nc1ccccc1)c1ccccc1Cl`, for which the TGI in [1] was more than 100 µM; in [2], more than 100 µM; in experiment [3], more than 100 µM; in [4] it was more than 100 µM; in experiment [5], more than 100 µM; in experiment [6] it was 66.3 µM. For the same molecule, the TGI in experiment [7] was more than 68.1 µM; in experiment [8], more than 100 µM; in experiment [9], more than 100 µM; in [10] it was more than 100 µM.
In the case of `CC[C@]12CN3CCc4c([nH]c5ccccc45)[C@@](C(=O)OC)(c4cc5c(cc4OC)N(C)[C@H]4[C@@](O)(C(=O)OC)[C@H](OC(C)=O)[C@]6(CC)C=CCN7CC[C@]54[C@@H]76)CC(C3)[C@H]1O2` (stereo not given in full), the GI50 in experiment [1] was 0.145 µM; in [2], 0.239 µM; in experiment [3] it was 0.462 µM; in experiment [4], 0.167 µM; in experiment [5], 1.19 µM; in experiment [6] it was 0.0434 µM. Besides, the GI50 in [7] was 0.408 µM; in [8] it was 0.155 µM; in [9], 0.137 µM; in experiment [10], 0.161 µM. For the same molecule, the TGI is more than 100 µM in experiment [1]; 25.1 µM in experiment [2]; more than 50 µM in [3]; 10.9 µM and > 27.4 µM in experiment [4]; more than 100 µM in [5]; 15.4 µM and > 50 µM in experiment [7]. Moreover, the TGI in experiment [8] is more than 100 µM; in experiment [9], 34 µM and > 50 µM; in experiment [10], more than 100 µM.
Take `O=c1[nH]c(-c2ccc(Cl)c(Cl)c2)cn1-c1ccc(Cl)cc1`: the GI50 was 36.2 µM in experiment [1]; 29.7 µM in experiment [2]; 22.9 µM in [3]; 22.3 µM in [4]; 30.2 µM in experiment [5]; 24.4 µM in experiment [6]. The GI50 in experiment [7] is 26.7 µM; in experiment [8], 33.1 µM; in experiment [9], 17.4 µM; in experiment [10], more than 100 µM. Besides, the TGI in experiment [1] is more than 100 µM; in experiment [2], more than 100 µM; in experiment [3] it was 54.1 µM; in [4], 52.2 µM; in experiment [5], more than 100 µM; in experiment [6], 64.6 µM. The TGI in experiment [7] was more than 100 µM; in [8], more than 100 µM; in [9], 42.8 µM; in [10], more than 100 µM.
Turning to `O=C1CCCc2ccc([N+](=O)[O-])c(O)c21`, the TGI in [1], in [2], in [3], in experiment [4], in experiment [5] and in [6] was more than 100 µM throughout. The TGI in experiment [7], in experiment [8], in [9] and in [10] was more than 100 µM throughout.
For the molecule `CC1OC(n2cc(F)c(=O)[nH]c2=O)CCC1=O` (stereo not given), the TGI in experiment [1], in experiment [2], in [3], in experiment [4], in experiment [5] and in experiment [6] was more than 100 µM in each case. Besides, the TGI in experiment [7], in [8], in experiment [9] and in experiment [10] was more than 100 µM throughout.
Take `COC(=O)[C@H](Cc1cn(C)cn1)NC(=O)[C@H](CC(C)C)NC(=O)Nc1cc(C(F)(F)F)cc(C(F)(F)F)c1`: the GI50 was 4.89 µM in experiment [1]; more than 10 µM in experiment [2]; more than 10 µM in experiment [3]; more than 10 µM in experiment [4]; more than 10 µM in [5]; more than 10 µM in [6]. The GI50 was 6.69 µM in [7], 5.28 µM in experiment [8] and more than 10 µM in [9]. Moreover, the TGI in experiment [1], in experiment [2], in experiment [3], in experiment [4], in [5] and in experiment [6] was more than 10 µM in each case. Also, the TGI in experiment [7], in [8] and in experiment [9] was more than 10 µM each time.
On to `CCn1nc(C2CCN(C(=O)CCO)CC2)nc1-c1cnc(N)c(-c2nnc(C(C)(C)C)o2)n1`, for which the GI50 in experiment [1] is 3.2 µM; in [2], 27.7 µM; in experiment [3] it was 25.8 µM; in experiment [4] it was 3.9 µM; in [5], 3.17 µM; in experiment [6] it was 30.9 µM. In addition, the GI50 in experiment [7] is 6.34 µM; in [8], 18.3 µM; in experiment [9], more than 65.5 µM. Also, the TGI in experiment [1] was 19.8 µM; in experiment [2] it was more than 100 µM; in experiment [3], more than 100 µM; in experiment [4], more than 100 µM; in experiment [5], more than 100 µM; in [6] it was more than 100 µM. For the same molecule, the TGI in [7], in experiment [8] and in experiment [9] was more than 100 µM throughout.
Turning to `CCCCCCOC(=O)CC1=C(C)/C(=C/c2[nH]c(-c3ccc[nH]3)cc2OC)N=C1C`, the GI50 was 0.0218 µM in experiment [1]; 0.0342 µM in experiment [2]; 0.137 µM in [3]; 0.355 µM in [4]; 0.371 µM in [5]; 0.0532 µM in experiment [6]. Besides, the GI50 was 0.0384 µM in experiment [8], 0.0675 µM in [9] and 0.394 µM in [10]. Further, the TGI was found to be 0.0565 µM in experiment [1]; 0.328 µM in [2]; 1.06 µM in experiment [3]; 1.39 µM in [4]; 2 µM in experiment [5]; 0.23 µM in [6]. For the same molecule, the values for the TGI in experiment [8], in [9] and in experiment [10] were 1.35 µM, 1.13 µM and 1.51 µM, respectively.
As to `O=C(COc1ccccc1)NNc1ccccc1`, the GI50 was 12.3 µM and 12.2 µM in experiment [1]; 15.2 µM and 13.9 µM in experiment [2]; > 92.3 µM and 224 µM in experiment [3]; 17.1 µM and 15.8 µM in [4]; 144 µM in experiment [5]; 74.5 µM in experiment [6]. In addition, the GI50 in experiment [7] is more than 300 µM; in experiment [8], 13.4 µM and 18.9 µM; in experiment [9] it was 195 µM. In addition, the TGI in experiment [1] was more than 300 µM; in experiment [2], 171 µM; in [3], more than 300 µM; in experiment [4], more than 300 µM; in [5], more than 300 µM; in experiment [6] it was more than 300 µM. Moreover, the TGI in experiment [7], in experiment [8] and in experiment [9] was more than 300 µM throughout.
